Measurements reported in PubChem BioAssay (NCI).
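Assay format: 96-well plates, 48-hour exposure. At the TGI there is no net growth.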

Columns and labels:
Assay in all cases: growth of human tumour cells (NCI), 48 h
DU-145 prostate = system: DU-145 prostate
HOP-62 NSCLC = system: HOP-62 NSCLC
HT29 colon = system: HT29 colon
MDA-MB-231 breast = system: MDA-MB-231 breast
NCI-H460 lung = system: NCI-H460 lung
SK-MEL-2 melanoma = system: SK-MEL-2 melanoma
SK-OV-3 ovarian = system: SK-OV-3 ovarian
SN12C renal = system: SN12C renal
SW-620 colon = system: SW-620 colon
UO-31 renal = system: UO-31 renal

SMILES: COc1ccc(CCNC(=O)CCCCCO)cc1OC
- TGI (DU-145 prostate): > 100 µM
- TGI (HOP-62 NSCLC): > 100 µM
- TGI (HT29 colon): > 100 µM
- TGI (MDA-MB-231 breast): > 100 µM
- TGI (NCI-H460 lung): > 100 µM
- TGI (SK-MEL-2 melanoma): > 100 µM
- TGI (SK-OV-3 ovarian): > 100 µM
- TGI (SN12C renal): > 100 µM
- TGI (SW-620 colon): > 100 µM
- TGI (UO-31 renal): > 100 µM

SMILES: CCOc1cc2c(cc1O)CC[C@@H]1[C@@H]2CC[C@]2(C)C(OS(=O)OC3CC[C@@H]4[C@H]5CCc6cc(O)c(OCC)cc6[C@@H]5CC[C@@]34C)CC[C@@H]12 (stereo not given in full)
- TGI (DU-145 prostate): 11.5 µM
- TGI (HOP-62 NSCLC): > 27 µM
- TGI (HT29 colon): > 53.7 µM
- TGI (MDA-MB-231 breast): 29.8 µM
- TGI (NCI-H460 lung): > 34.2 µM
- TGI (SK-MEL-2 melanoma): 6.19 µM
- TGI (SK-OV-3 ovarian): > 37.3 µM
- TGI (SN12C renal): 28.9 µM
- TGI (SW-620 colon): 11 µM
- TGI (UO-31 renal): 27.4 µM

SMILES: COc1ccc(N=N/C(=N/NC(=O)c2cc(Cl)ccc2C(=O)c2ccccc2)c2ccc(N(CCC#N)CCC#N)cc2C)cc1
- TGI (DU-145 prostate): > 100 µM
- TGI (HOP-62 NSCLC): 81.2 µM
- TGI (HT29 colon): 60.8 µM
- TGI (MDA-MB-231 breast): 58.1 µM
- TGI (NCI-H460 lung): 45.3 µM
- TGI (SK-MEL-2 melanoma): 50 µM
- TGI (SK-OV-3 ovarian): > 100 µM
- TGI (SN12C renal): 47.1 µM
- TGI (SW-620 colon): > 100 µM
- TGI (UO-31 renal): 79.3 µM

SMILES: COc1ccc(-c2nnc(CCCCCCCCc3nnc(-c4ccc(OC)cc4)n3N)n2N)cc1
- TGI (DU-145 prostate): > 100 µM
- TGI (HOP-62 NSCLC): 65.8 µM
- TGI (HT29 colon): > 100 µM
- TGI (MDA-MB-231 breast): > 100 µM
- TGI (NCI-H460 lung): > 100 µM
- TGI (SK-MEL-2 melanoma): > 100 µM
- TGI (SK-OV-3 ovarian): > 100 µM
- TGI (SN12C renal): > 100 µM
- TGI (SW-620 colon): > 100 µM
- TGI (UO-31 renal): > 100 µM

SMILES: COc1cc(C2c3cc4c(cc3OC3(OC)COC(=O)C23)OCO4)cc(OC)c1OC (stereo not given)
- TGI (DU-145 prostate): 6.51 µM
- TGI (HOP-62 NSCLC): > 100 µM
- TGI (HT29 colon): 0.804 µM
- TGI (MDA-MB-231 breast): 2.08 µM
- TGI (NCI-H460 lung): > 67.9 µM
- TGI (SK-MEL-2 melanoma): > 40.9 µM
- TGI (SK-OV-3 ovarian): > 100 µM
- TGI (SN12C renal): > 80.5 µM
- TGI (SW-620 colon): > 100 µM
- TGI (UO-31 renal): > 100 µM

SMILES: O=C(CCc1ccc(O)c(O)c1)NCCc1ccc(O)c(O)c1
- TGI (DU-145 prostate): > 100 µM
- TGI (HOP-62 NSCLC): > 100 µM
- TGI (HT29 colon): > 100 µM
- TGI (MDA-MB-231 breast): 73.9 µM
- TGI (NCI-H460 lung): > 100 µM
- TGI (SK-MEL-2 melanoma): > 100 µM
- TGI (SK-OV-3 ovarian): > 100 µM
- TGI (SN12C renal): > 100 µM
- TGI (SW-620 colon): > 100 µM
- TGI (UO-31 renal): > 100 µM

SMILES: CCC/C(Cl)=N\OC(=O)Nc1ccc(F)c([N+](=O)[O-])c1
- TGI (DU-145 prostate): 28.6 µM
- TGI (HOP-62 NSCLC): 34.9 µM
- TGI (HT29 colon): 45.3 µM
- TGI (MDA-MB-231 breast): 36.8 µM
- TGI (NCI-H460 lung): 34.9 µM
- TGI (SK-MEL-2 melanoma): 27.3 µM
- TGI (SK-OV-3 ovarian): 78.9 µM
- TGI (SN12C renal): 72.2 µM
- TGI (SW-620 colon): 39.6 µM
- TGI (UO-31 renal): 26.6 µM

SMILES: O=S(=O)(O)c1cc(Nc2ccnc3ccccc23)c2c(S(=O)(=O)O)cc(S(=O)(=O)O)cc2c1
- TGI (DU-145 prostate): > 100 µM
- TGI (HOP-62 NSCLC): > 100 µM
- TGI (HT29 colon): > 100 µM
- TGI (MDA-MB-231 breast): > 100 µM
- TGI (NCI-H460 lung): > 100 µM
- TGI (SK-MEL-2 melanoma): > 100 µM
- TGI (SK-OV-3 ovarian): > 100 µM
- TGI (SN12C renal): > 100 µM
- TGI (SW-620 colon): > 100 µM
- TGI (UO-31 renal): > 100 µM

SMILES: Cc1nc2c(Cl)cc(Cl)cc2c(Cl)c1CCCl
- TGI (DU-145 prostate): > 100 µM
- TGI (HOP-62 NSCLC): > 100 µM
- TGI (HT29 colon): > 100 µM
- TGI (MDA-MB-231 breast): > 100 µM
- TGI (NCI-H460 lung): > 100 µM
- TGI (SK-MEL-2 melanoma): > 100 µM
- TGI (SK-OV-3 ovarian): > 100 µM
- TGI (SN12C renal): > 100 µM
- TGI (SW-620 colon): > 100 µM
- TGI (UO-31 renal): > 100 µM

SMILES: CCCCC1(N=[N+]=[N-])C(=O)C2C=CC=C3c4ccccc4N(C1=O)C32 (stereo not given)
- TGI (DU-145 prostate): > 100 µM
- TGI (HOP-62 NSCLC): > 31.6 µM
- TGI (HT29 colon): 25.8 µM
- TGI (MDA-MB-231 breast): > 31.6 µM
- TGI (NCI-H460 lung): > 31.6 µM
- TGI (SK-MEL-2 melanoma): 21.5 µM
- TGI (SK-OV-3 ovarian): > 31.6 µM
- TGI (SN12C renal): > 31.6 µM
- TGI (SW-620 colon): > 31.6 µM
- TGI (UO-31 renal): > 31.6 µM
